# Test results reported in patent US8846570B2, “Herbicidal compositions comprising 4-amino-3-chloro-5-fluoro-6-(4-chloro-2-fluoro-3-methoxyphenyl)pyridine-2-carboxylic acid or a derivative thereof and microtubule inhibiting herbicides” (Dow AgroSciences LLC, priority 2012, dated 2014).
# Read-outs that look alike come from different tables or passages of the source.
# Key:
# Assay in all cases: Postemergence foliar-applied, direct seeded rice, greenhouse: visual weed control
# Type in all cases: in vivo
# [1] = test system: Ipomoea hederacea Jacq. (IPOHE); conditions: post-emergence, read-out: Visual Weed Control (%) Obs
# Experimental: (§1) Seeds or nutlets of the desired test plant species were planted in a soil matrix prepared by mixing a loam or sandy loam soil (e.g., 28.6 percent silt, 18.8 percent clay, and 52.6 percent sand, with a pH of about 5.8 and an organic matter content of about 1.8 percent) and calcareous grit in an 80 to 20 ratio. The soil matrix was contained in plastic pots with a volume of 1 quart and a surface area of 83.6 cm^2. […] The plants were grown for 8-22 days in a greenhouse with an approximate 14 h photoperiod which was maintained at about 29° C. during the day and 26° C. during the night. Nutrients (Peters Excel® 15-5-15 5-Ca 2-Mg and iron chelate) were applied in the irrigation solution as needed and water was added on a regular basis. Supplemental lighting was provided with overhead metal halide 1000-Watt lamps as necessary. The plants were employed for testing when they reached the first through fourth true leaf stage.
# (§2) Forms of compound A were applied on an acid equivalent basis.
# (§3) For treatments comprised of formulated compounds, measured amounts of compounds were placed individually in 25 mL glass vials and diluted in a volume of 1.25% (v/v) Agri-Dex® crop oil concentrated to obtain 12× stock solutions. […] Application solutions were prepared by adding an appropriate amount of each stock solution (e.g., 1 mL) and diluted to the appropriate final concentrations with the addition of 10 mL of an aqueous mixture of 1.25% (v/v) crop oil concentrate so that the final spray solutions contained 1.25+/−0.05% (v/v) crop oil concentrate.
# (§4) As required, additional water and/or 97:3 v/v acetone/DMSO was added to individual application solutions so that the final acetone and DMSO concentrations of the application solutions being compared were 8.1% and 0.25%, respectively.
# (§5) All stock solutions and applications solutions were visually inspected for compound compatibility prior to application. Spray solutions were applied to the plant material with an overhead Mandel track sprayer equipped with a 8002E nozzles calibrated to deliver 187 L/ha over an application area of 0.503 m^2 at a spray height of 18 to 20 inches (46 to 50 cm) above average plant canopy height. Control plants were sprayed in the same manner with the solvent blank.
# (§6) The treated plants and control plants were placed in a greenhouse as described above and watered by sub-irrigation to prevent wash-off of the test compounds. After approximately 3 weeks, the condition of the test plants as compared with that of the untreated plants was determined visually and scored on a scale of 0 to 100 percent where 0 corresponds to no injury or growth inhibition and 100 corresponds to complete kill.
# (§7) Colby's equation was used to determine the herbicidal effects expected from the mixtures (Colby, S. R. 1967. Calculation of the synergistic and antagonistic response of herbicide combinations. Weeds 15:20-22.).
# (§8) The following equation was used to calculate the expected activity of mixtures containing two active ingredients, A and B: Expected=A+B−(A×B/100)
# [2] = test system: Brachiaria platyphylla (Griseb.) Nash (BRAPP); conditions: 21 DAA
# Description: (§9) Seeds or nutlets of the desired test plant species were planted in a soil matrix prepared by mixing a loam or sandy loam soil (e.g., 28.6 percent silt, 18.8 percent clay, and 52.6 percent sand, with a pH of about 5.8 and an organic matter content of about 1.8 percent) and calcareous grit in an 80 to 20 ratio. The soil matrix was contained in plastic pots with a volume of 1 quart and a surface area of 83.6 cm^2. When required to ensure good germination and healthy plants, a fungicide treatment and/or other chemical or physical treatment was applied. The plants were grown for 8-22 days in a greenhouse with an approximate 14 h photoperiod which was maintained at about 29° C. during the day and 26° C. during the night. Nutrients (Peters Excel® 15-5-15 5-Ca 2-Mg and iron chelate) were applied in the irrigation solution as needed and water was added on a regular basis. Supplemental lighting was provided with overhead metal halide 1000-Watt lamps as necessary. The plants were employed for testing when they reached the first through fourth true leaf stage.
# (§10) Treatments consisted of the acid or esters of 4-amino-3-chloro-5-fluoro-6-(4-chloro-2-fluoro-3-methoxy-phenyl)pyridine-2-carboxylic acid (Compound A), each formulated as an SC (suspension concentrate), and various herbicidal components alone and in combination. Forms of compound A were applied on an acid equivalent basis.
# (§11) Treatment requirements were calculated based upon the rates being tested, the concentration of active ingredient or acid equivalent in the formulation, and a 12 mL application volume at a rate of 187 L/ha.
# as §3, §4, §5, §6, §7, §8
# [3] = test system: Echinochloa colona (L.) Link (ECHCO)
# Description: as §9, §10, §11, §3, §4, §5, §6, §7, §8
# [4] = test system: Echinochloa crusgalli (L.) Beauv. (ECHCG)
# Experimental: as §1, §2, §3, §4, §5, §6, §7, §8
# [5] = test system: Digitaria sanguinalis (L.) Scop. (DIGSA); conditions: 19 DAA
# Description: as §9, §10, §11, §3, §4, §5, §6, §7, §8
compound,measurement,setting,value
"CSC(=O)c1c(C(F)F)nc(C(F)(F)F)c(C(=O)SC)c1CC(C)C [Dithiopyr, S,S′-dimethyl-2-(difluoromethyl)-4-(2-methylpropyl)-6-(trifluoromethyl)-3,5-pyridinedicarbothioate]",pest or weed control at 35 g/ha,"[1]; 504 h, 21 DAA, 35 g ai/ha",10%
same,Visual Weed Control (%) Obs,[2]; 35 g ai/ha,0%
same,Visual Weed Control (%) Obs,[2]; 70 g ai/ha,0%
same,Visual Weed Control (%) Obs,[2]; 140 g ai/ha,0%
same,Visual Weed Control (%) Obs,"[3]; 21 DAA, 35 g ai/ha",0%
same,Visual Weed Control (%) Obs,"[3]; 21 DAA, 70 g ai/ha",0%
same,Visual Weed Control (%) Obs,"[3]; 21 DAA, 140 g ai/ha",0%
"COc1c(Cl)ccc(-c2nc(C(=O)OCc3ccccc3)c(Cl)c(N)c2F)c1F [Compound A Benzyl Ester, benzyl ester of 4-amino-3-chloro-5-fluoro-6-(4-chloro-2-fluoro-3-methoxy-phenyl)pyridine-2-carboxylic acid]",pest or weed control at 4.38 g/ha,[1]; 456 h,0%
same,pest or weed control at 8.75 g/ha,[1]; 456 h,0%
same,pest or weed control at 8 g/ha,[1]; 480 h,20%
same,pest or weed control at 8.75 g/ha,[1]; 480 h,10%
same,pest or weed control at 16 g/ha,[1]; 480 h,40%
same,pest or weed control at 17.5 g/ha,[1]; 480 h,25%
same,pest or weed control at 4.38 g/ha,[1]; 504 h,10%
same,pest or weed control at 8.75 g/ha,[1]; 504 h,10%
same,pest or weed control at 17.5 g/ha,[1]; 504 h,25%
same,pest or weed control at 8 g/ha,[1]; 528 h,10%
same,pest or weed control at 16 g/ha,[1]; 528 h,10%
same,pest or weed control at 32 g/ha,[1]; 528 h,35%
same,Visual Weed Control (%) Obs,"[4]; 19 DAA, 4.38 g ae/ha",55%
same,Visual Weed Control (%) Obs,"[4]; 19 DAA, 8.75 g ae/ha",85%
same,Visual Weed Control (%) Obs,"[4]; 20 DAA, 4.38 g ae/ha",40%
same,Visual Weed Control (%) Obs,"[4]; 20 DAA, 8.75 g ae/ha",70%
same,Visual Weed Control (%) Obs,[2]; 4.38 g ae/ha,70%
same,Visual Weed Control (%) Obs,[5]; 4.38 g ae/ha,35%
same,Visual Weed Control (%) Obs,[5]; 8.75 g ae/ha,50%
same,Visual Weed Control (%) Obs,"[3]; 19 DAA, 4.38 g ae/ha",65%
same,Visual Weed Control (%) Obs,"[3]; 19 DAA, 8.75 g ae/ha",90%
"CCC(CC)Nc1c([N+](=O)[O-])cc(C)c(C)c1[N+](=O)[O-] [Pendimethalin, N-(1-ethylpropyl)-3,4-dimethyl-2,6-dinitrobenzenamine, reference compound]",pest or weed control at 140 g/ha,"[1]; 456 h, 19 DAA, 140 g ai/ha",0%
same,pest or weed control at 280 g/ha,"[1]; 456 h, 19 DAA, 280 g ai/ha",0%
same,pest or weed control at 560 g/ha,"[1]; 456 h, 19 DAA, 560 g ai/ha",0%
same,pest or weed control at 1120 g/ha,"[1]; 504 h, 21 DAA, 1120 g ai/ha",13%
same,Visual Weed Control (%) Obs,"[4]; 19 DAA, 140 g ai/ha",0%
same,Visual Weed Control (%) Obs,"[4]; 19 DAA, 280 g ai/ha",0%
same,Visual Weed Control (%) Obs,"[4]; 19 DAA, 560 g ai/ha",10%
same,Visual Weed Control (%) Obs,"[4]; 21 DAA, 1120 g ai/ha",18%
same,Visual Weed Control (%) Obs,[5]; 140 g ai/ha,0%
same,Visual Weed Control (%) Obs,[5]; 280 g ai/ha,0%
same,Visual Weed Control (%) Obs,"[3]; 19 DAA, 140 g ai/ha",0%
same,Visual Weed Control (%) Obs,"[3]; 19 DAA, 280 g ai/ha",0%
same,Visual Weed Control (%) Obs,"[3]; 19 DAA, 560 g ai/ha",0%
"COc1c(Cl)ccc(-c2nc(C(=O)O)c(Cl)c(N)c2F)c1F [Compound A Acid, 4-amino-3-chloro-6-(4-chloro-2-fluoro-3-methoxyphenyl)-5-fluoropyridine-2-carboxylic acid]",pest or weed control at 4.38 g/ha,"[1]; 456 h, 19 DAA, 4.38 g ae/ha",0%
same,pest or weed control at 8.75 g/ha,"[1]; 456 h, 19 DAA, 8.75 g ae/ha",10%
same,pest or weed control at 35 g/ha,"[1]; 504 h, 21 DAA, 35 g ae/ha",45%
same,pest or weed control at 8 g/ha,"[1]; 528 h, 22 DAA, 8 g ae/ha",25%
same,pest or weed control at 16 g/ha,"[1]; 528 h, 22 DAA, 16 g ae/ha",35%
same,pest or weed control at 32 g/ha,"[1]; 528 h, 22 DAA, 32 g ae/ha",40%
same,Visual Weed Control (%) Obs,"[4]; 19 DAA, 4.38 g ae/ha",60%
same,Visual Weed Control (%) Obs,[2]; 8.75 g ae/ha,60%
same,Visual Weed Control (%) Obs,[5]; 4.38 g ae/ha,30%
same,Visual Weed Control (%) Obs,"[3]; 21 DAA, 4.38 g ae/ha",60%
same,Visual Weed Control (%) Obs,"[3]; 21 DAA, 8.75 g ae/ha",90%
